Reference: patent US20230416209A1, “COMPOUNDS AND METHODS TO TARGET GLUCOSE-STIMULATED PHOSPHOHISTIDINE SIGNALING AND ESOPHAGEAL CANCER GROWTH” (Health Research, Inc., priority 2020, published 2023)
Read-outs that look alike come from different tables or passages of the source.

Key:
[1] = test system: TE9; assay: WST-1 proliferation assay, TE9 cells; type: cell-based; settings: Homo sapiens, TE-9; medium containing 5% FBS, 48 hr, WST-1 assay; read-out: IC^50 of H5 on ESCC cells, TE9
[2] = test system: FAK^pHis58; assay: Glc-induced phosphorylation of FAK H58 in KYSE70 cells; type: cell-based; settings: KYSE70 cells stimulated by Glc in the absence of growth factors
Experimental: (§1) A. Top ranked small molecules that bind to FAK H58 site. B. FAK^His58 inhibitors attenuate Glc-induced phosphorylation of FAK H58. In the absence of growth factors, KYSE70 cells were stimulated by Glc with or without FAK^His58 inhibitors (H5). N=3, **: p<0.001 vs vehicle+Glc. C. Dose responses of FAK^His58 inhibitors on proliferation. KYSE70 cells were incubated in serum-free medium containing Glc, BrdU and varied concentrations of FAK^His58 inhibitors (H5). BrdU coupling ELISA was performed to assess the relative levels of newly synthesized BrdU-DNA. IC^50 values were calculated.
(§2) Reproducible test: BrdU coupling ELISA, pHis-FAK assays and IP/IB were performed to confirm the FAK H58 hit inhibition of ESCC proliferation, phosphorylation of FAK on H58 and FAK-RB1 interaction (FIGS. 2-4).

[3] = test system: ESCC (KYSE520) cells; assay: WST1 analysis of cisplatin combined with FAK H58 inhibitor, KYSE520; type: cell-based
Experimental: ESCC (KYSE520) cells were seeded on a 96-well plate at a density of 2000 cells/well in complete medium. The next day, medium was replaced with the serum-reduced medium (5% FBS) containing 0-80 μM of cisplatin and 5 fixed doses of H5 (0 μM, 5 μM, 10 μM, 20 μM, or 40 μM). The cells were kept for 72 hrs. WST1 analysis, a MTT-like assay, was performed to assess proliferation. Log (inhibition) vs. response—variable (four parameters). Prism was utilized to find the best-fit value and to calculate a complete confidence interval.
Synergistic effects of the chemotherapy drug combined with FAK H58 inhibitor. Chemotherapies are commonly used treatments for patients with ESCC. It was sought to determine whether the inhibition of glucose-induced G1-to-S phase transition of the cell cycle coupled with the interruption of DNA synthesis by chemotherapeutic agents is synergistic. ESCC cells (KYSE70 and KYSE520) were cultured in the medium containing reduced FBS (5%), 0-80 μM of cisplatin and 5 fixed doses of H5 (0, 5, 10, 20, or 40 μM) for 72 hr. Cell proliferation was assessed using WST1, a MTT-like reagent.
To assess the synergistic effects of cisplatin coupled with the FAK H58 inhibitor derivative (H5A), ESCC cells (KYSE70 and KYSE520) were treated with 0-80 μM of cisplatin and 5 fixed doses of H5 Å for 72 hr. The H5 derivative H5 Å enhanced the inhibitory effects of cisplatin in KYSE70 from 4 to 2 μM (FIG. 7) and in KYSE520 from 27 to 24 μM (FIG. 8), respectively.

[4] = test system: TE10 cells; assay: WST-1 proliferation assay, TE10 cells; type: cell-based; settings: Homo sapiens, TE-10; medium containing 5% FBS, 48 hr, WST-1 assay; read-out: IC^50, TE10
[5] = test system: NME1 (Homo sapiens); assay: NME1-catalyzed histidine phosphorylation of recombinant FAK (pHis-rFAK ELISA); type: biochemical; settings: purified NME1 and rFAK, 0-1 μM, 3 hr
Chain of NME1 (Homo sapiens) (Q05397 whole entry): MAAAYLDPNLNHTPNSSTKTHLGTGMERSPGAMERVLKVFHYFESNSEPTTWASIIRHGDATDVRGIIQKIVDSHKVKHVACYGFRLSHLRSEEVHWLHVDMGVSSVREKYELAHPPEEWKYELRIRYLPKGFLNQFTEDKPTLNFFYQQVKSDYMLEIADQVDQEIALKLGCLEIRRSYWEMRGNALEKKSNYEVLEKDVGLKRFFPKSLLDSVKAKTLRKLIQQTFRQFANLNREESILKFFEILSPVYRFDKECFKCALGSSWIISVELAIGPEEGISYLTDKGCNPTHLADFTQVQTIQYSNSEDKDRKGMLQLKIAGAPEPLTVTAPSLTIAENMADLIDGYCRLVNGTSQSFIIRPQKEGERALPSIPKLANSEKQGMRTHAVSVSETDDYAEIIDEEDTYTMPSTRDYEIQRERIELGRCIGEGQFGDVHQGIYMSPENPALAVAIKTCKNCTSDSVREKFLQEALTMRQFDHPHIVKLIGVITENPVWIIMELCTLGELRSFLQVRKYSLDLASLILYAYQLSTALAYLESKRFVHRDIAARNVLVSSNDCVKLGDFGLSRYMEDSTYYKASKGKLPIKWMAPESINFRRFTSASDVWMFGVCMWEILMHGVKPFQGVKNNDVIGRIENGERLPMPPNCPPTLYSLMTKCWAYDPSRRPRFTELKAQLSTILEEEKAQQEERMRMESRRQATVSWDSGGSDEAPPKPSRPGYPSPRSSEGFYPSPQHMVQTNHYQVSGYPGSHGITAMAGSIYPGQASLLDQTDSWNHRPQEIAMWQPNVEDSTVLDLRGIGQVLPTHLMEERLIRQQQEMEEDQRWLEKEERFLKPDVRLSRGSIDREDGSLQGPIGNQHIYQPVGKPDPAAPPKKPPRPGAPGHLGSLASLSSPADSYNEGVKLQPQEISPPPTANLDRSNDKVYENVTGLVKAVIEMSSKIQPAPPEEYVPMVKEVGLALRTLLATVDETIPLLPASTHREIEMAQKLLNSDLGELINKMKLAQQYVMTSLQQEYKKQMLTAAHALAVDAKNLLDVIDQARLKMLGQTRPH
From the text: A. Assessment of Glc-altered NM1 phosphorylation of pHis-FAK. NME1 was pulldown with an anti-NME1 antibody from KYSE70 cells +/−Glc stimulation and added to the anti-pHis antibody (rabbit)-coated wells. The anti-FAK (mouse) was used to detect the pHis-FAK on the plate. N=3, *: p<0.05, ***: p<0.001 and ****: p<0.0001 vs No NME1 or NME1 (−Glc). B. Glc increases NME1 in xenograft lysates derived from fasting mice +/−Glc. C. H5 attenuates NME1-increased levels of pHis-rFAk. Purified NMR1 and recombinant FAK (rFAK) were incubated in the NME kinase buffer in the presence of varied concentrations (0-1 μM) of vehicle of H5 for 3 hr. The relative levels of pHis-rFAK were assessed using ELISA.

[6] = test system: KYSE70; assay: WST-1 proliferation assay, KYSE70 cells; type: cell-based; settings: Homo sapiens, KYSE-70; medium containing 5% FBS, 48 hr, WST-1 assay; read-out: IC^50 of H5 on ESCC cells, KYSE70
[7] = test system: KYSE70 cells; assay: BrdU coupling ELISA of Glc-induced ESCC cell proliferation; type: cell-based; settings: Homo sapiens, KYSE-70, serum-free medium containing Glc, BrdU and varied concentrations of inhibitor, read-out: IC^50 on ESCC cell proliferation
Experimental: as §1, §2

[8] = target: FAK-RB1 interaction (Homo sapiens, UniProt Q05397); assay: FAK-RB1 interaction assay (rFAK/rRB1 co-IP ELISA); type: biochemical; settings: rFAK with 0-10 μM for 1 hr, then rRB1 3 hr
Chain of FAK-RB1 interaction (Q05397 whole entry): as above
Experimental: Then, rRB1 was added to mixture and kept at room temperature for 3 hr. The mixture was added to the anti-FAK antibody-coated plated. After extensive washing, the co-IPed rRB1 was detected using an anti-RB1 antibody.

[9] = test system: ESCC (KYSE70) cells; assay: WST1 analysis of cisplatin combined with FAK H58 inhibitor, KYSE70; type: cell-based; settings: KYSE70, 72 hr
Experimental: ESCC (KYSE70) cells were seeded on a 96-well plate at a density of 2000 cells/well in complete medium. The next day, medium was replaced with the serum-reduced medium (5% FBS) containing 0-80 μM of cisplatin and 5 fixed doses of H5 (0 μM, 5 μM, 10 μM, 20 μM, or 40 μM). The cells were kept for 72 hrs. WST1 analysis, a MTT-like assay, was performed to assess proliferation. Log (inhibition) vs. response-variable (four parameters). Prism was utilized to find the best-fit value and to calculate a complete confidence interval. […] ESCC (KYSE70) cells were seeded on a 96-well plate at a density of 2000 cells/well in complete medium. The next day, medium was replaced with the serum-reduced medium (5% FBS) containing 0-80 μM of cisplatin and 5 fixed doses of H5 (0 μM, 5 μM, 10 μM, 20 μM, or 40 μM). The cells were kept for 72 hrs. WST1 analysis, a MTT-like assay, was performed to assess proliferation. Log (inhibition) vs. response-variable (four parameters). Prism was utilized to find the best-fit value and to calculate a complete confidence interval. Synergistic effects of the chemotherapy drug combined with FAK H58 inhibitor. Chemotherapies are commonly used treatments for patients with ESCC. […] Cell proliferation was assessed using WST1, a MTT-like reagent. […]

Structure (SMILES)	IC50 [1] [µM]	Effect on Glc-induced FAK^pHis58 [2]	Effect of combination with cisplatin on proliferation ([3]; KYSE520, 72 hr)	IC50 [4] [µM]	Effect on NME1-catalyzed FAK^pHis (pHis-rFAK levels) [5]	IC50 [6] [µM]	IC50 [7] [µM]	Effect on FAK-RB1 interaction [8]	IC50 ([9]; before adding H5A, read-out: IC50 of cisplatin (inhibitory effects)) [µM]	IC50 ([9]; fixed doses of H5A, read-out: IC50 of cisplatin combined with H5A) [µM]	IC50 ([3]; KYSE520, 5% FBS, 72 hr, before adding H5, read-out: IC50 of cisplatin) [µM]	IC50 ([3]; KYSE520, 5% FBS, 72 hr, fixed doses of H5 (5-40 μM), read-out: IC50 of cisplatin combined with H5) [µM]	IC50 ([3]; KYSE520, 72 hr, before adding H5A, read-out: IC50 of cisplatin (inhibitory effects)) [µM]	IC50 ([3]; KYSE520, 72 hr, fixed doses of H5A, read-out: IC50 of cisplatin combined with H5A) [µM]
O=c1nc(-c2ccccc2)c(-c2ccccc2)n[nH]1 [H5, 5,6-diphenyl-1,2,4-triazin-3(2H)-one]	0.38	decreased Glc-induced FAK^pHis58	enhanced the effects of cisplatin	0.088	attenuates NME1-catalyzed FAK^pHis	5.7	9	prevents Glc-induced FAK-RB1 interaction	–	–	–	–	–	–
CCOC(=O)CSc1nnc(-c2ccccc2)c(-c2ccccc2)n1 [H5B, ethyl [(5,6-diphenyl-1,2,4-triazin-3-yl)thio]acetate]	–	–	–	0.065	–	–	–	–	–	–	–	–	–	–
N.N.[Cl][Pt][Cl] [cisplatin]	–	–	–	–	–	–	–	–	4	2	31	23	27	24
